The molecules below were run against 5-HT2A (Homo sapiens (Human), UniProt P28223) (assay: Radioligand binding assay, [^3H]5-HT competition, 5-HT2A). Conditions: not given.
Sequence of 5-HT2A (P28223 whole entry): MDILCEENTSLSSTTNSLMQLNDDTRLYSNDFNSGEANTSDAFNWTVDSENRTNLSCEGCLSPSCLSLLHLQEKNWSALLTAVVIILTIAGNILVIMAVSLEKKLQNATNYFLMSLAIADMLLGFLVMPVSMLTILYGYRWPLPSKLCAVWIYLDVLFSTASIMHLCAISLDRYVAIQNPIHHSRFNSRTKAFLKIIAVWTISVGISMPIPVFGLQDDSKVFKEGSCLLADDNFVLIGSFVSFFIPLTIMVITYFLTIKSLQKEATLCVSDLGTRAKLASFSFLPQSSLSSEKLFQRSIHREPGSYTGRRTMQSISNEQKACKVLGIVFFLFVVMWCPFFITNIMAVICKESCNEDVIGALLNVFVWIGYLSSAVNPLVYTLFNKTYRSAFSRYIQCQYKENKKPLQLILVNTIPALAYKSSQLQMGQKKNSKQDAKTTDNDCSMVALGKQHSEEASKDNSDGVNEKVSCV
Work on `COCCC(=O)Nc1ccc(OCCN2CCCC2)c(-c2c(C)ncnc2C)c1` [Compound 235, N-(3-(4,6-dimethylpyrimidin-5-yl)-4-(2-(pyrrolidin-1-yl)ethoxy)phenyl)-3-methoxypropanamide] yielded a Ki of 211 nM.

Same assay, conditions: [^3H]5-HT radioligand, membranes of HEK293 cells expressing recombinant 5-HT2A; Ki from IC50 by Cheng-Prusoff; read-out: 5-HT2A serotonin binding Ki value
In the case of `Cc1ncnc(C)c1-c1cc(NC(=O)c2ccn(C)c2)ccc1OCCN1CCCC1` [Compound 201, N-(3-(4,6-dimethylpyrimidin-5-yl)-4-(2-(pyrrolidin-1-yl)ethoxy)phenyl)-1-methyl-1H-pyrrole-3-carboxamide], the Ki is reported as 33.4 nM. `Cc1ncnc(C)c1-c1cc(NC(=O)c2ccn(C)n2)ccc1OCCN1CCCC1` [Compound 203, N-(3-(4,6-dimethylpyrimidin-5-yl)-4-(2-(pyrrolidin-1-yl)ethoxy)phenyl)-1-methyl-1H-pyrazole-3-carboxamide] showed a Ki of 783 nM. Work on `Cc1cc(C(=O)Nc2ccc(OCCN3CCCC3)c(-c3c(C)ncnc3C)c2)co1` [Compound 204, N-(3-(4,6-dimethylpyrimidin-5-yl)-4-(2-(pyrrolidin-1-yl)ethoxy)phenyl)-5-methylfuran-3-carboxamide] yielded a Ki of 13.2 nM. For `CCc1cc(C(=O)Nc2ccc(OCCN3CCCC3)c(-c3c(C)ncnc3C)c2)[nH]n1` [Compound 205, N-(3-(4,6-dimethylpyrimidin-5-yl)-4-(2-(pyrrolidin-1-yl)ethoxy)phenyl)-3-ethyl-1H-pyrazole-5-carboxamide], the Ki was 10.4 nM. `Cc1ncnc(C)c1-c1cc(NC(=O)c2cc(C(C)C)n[nH]2)ccc1OCCN1CCCC1` [Compound 206, N-(3-(4,6-dimethylpyrimidin-5-yl)-4-(2-(pyrrolidin-1-yl)ethoxy)phenyl)-3-isopropyl-1H-pyrazole-5-carboxamide] showed a Ki of 6.51 nM. `Cc1ncnc(C)c1-c1cc(NC(=O)c2cncc(F)c2)ccc1OCCN1CCCC1` [Compound 207, N-(3-(4,6-dimethylpyrimidin-5-yl)-4-(2-(pyrrolidin-1-yl)ethoxy)phenyl)-5-fluoronicotinamide] was tested, and the Ki was 44.2 nM. `COc1cncc(C(=O)Nc2ccc(OCCN3CCCC3)c(-c3c(C)ncnc3C)c2)c1` [Compound 208, N-(3-(4,6-dimethylpyrimidin-5-yl)-4-(2-(pyrrolidin-1-yl)ethoxy)phenyl)-5-methoxynicotinamide] showed a Ki of 22.5 nM. `Cc1ncnc(C)c1-c1cc(NC(=O)c2ccc(F)cn2)ccc1OCCN1CCCC1` [Compound 210, N-(3-(4,6-dimethylpyrimidin-5-yl)-4-(2-(pyrrolidin-1-yl)ethoxy)phenyl)-5-fluoropicolinamide] showed a Ki of 134 nM. With `Cc1ncnc(C)c1-c1cc(NC(=O)[C@@H]2C[C@H]2F)ccc1OCCN1CCCC1` [Compound 211, (1S,2R)—N-(3-(4,6-dimethylpyrimidin-5-yl)-4-(2-(pyrrolidin-1-yl)ethoxy)phenyl)-2-fluorocyclopropane-1-carboxamide] the Ki was 2.08 nM. For `Cc1ncnc(C)c1-c1cc(NC(=O)[C@H]2C[C@H]2F)ccc1OCCN1CCCC1` [Compound 212, (1R,2R)—N-(3-(4,6-dimethylpyrimidin-5-yl)-4-(2-(pyrrolidin-1-yl)ethoxy)phenyl)-2-fluorocyclopropane-1-carboxamide], the Ki was 5.56 nM. With `Cc1ncnc(C)c1-c1cc(NC(=O)[C@@H]2C[C@@H]2F)ccc1OCCN1CCCC1` [Compound 213, (1S,2S)—N-(3-(4,6-dimethylpyrimidin-5-yl)-4-(2-(pyrrolidin-1-yl)ethoxy)phenyl)-2-fluorocyclopropane-1-carboxamide] the Ki was 4.6 nM. `Cc1nc(C)c(C(=O)Nc2ccc(OCCN3CCCC3)c(-c3c(C)ncnc3C)c2)s1` [Compound 215, N-(3-(4,6-dimethylpyrimidin-5-yl)-4-(2-(pyrrolidin-1-yl)ethoxy)phenyl)-2,4-dimethylthiazole-5-carboxamide] was tested, and the Ki was 15.7 nM. With `Cc1cnoc1C(=O)Nc1ccc(OCCN2CCCC2)c(-c2c(C)ncnc2C)c1` [Compound 216, N-(3-(4,6-dimethylpyrimidin-5-yl)-4-(2-(pyrrolidin-1-yl)ethoxy)phenyl)-4-methylisoxazole-5-carboxamide] the Ki was 16.6 nM. Work on `Cc1ncnc(C)c1-c1cc(NC(=O)c2cnoc2)ccc1OCCN1CCCC1` [Compound 218, N-(3-(4,6-dimethylpyrimidin-5-yl)-4-(2-(pyrrolidin-1-yl)ethoxy)phenyl)isoxazole-4-carboxamide] yielded a Ki of 1510 nM. Molecule `Cc1nocc1C(=O)Nc1ccc(OCCN2CCCC2)c(-c2c(C)ncnc2C)c1` [Compound 219] has a Ki of 6.51 nM. Molecule `Cc1ncnc(C)c1-c1cc(NC(=O)c2cnoc2C)ccc1OCCN1CCCC1` [Compound 220, N-(3-(4,6-dimethylpyrimidin-5-yl)-4-(2-(pyrrolidin-1-yl)ethoxy)phenyl)-5-methylisoxazole-4-carboxamide] has a Ki of 22 nM. `Cc1ncnc(C)c1-c1cc(NC(=O)c2ncoc2C)ccc1OCCN1CCCC1` [Compound 221, N-(3-(4,6-dimethylpyrimidin-5-yl)-4-(2-(pyrrolidin-1-yl)ethoxy)phenyl)-5-methyloxazole-4-carboxamide] gave a Ki of 11.4 nM. In the case of `Cc1ncnc(C)c1-c1cc(NC(=O)Cc2ncsc2C)ccc1OCCN1CCCC1` [Compound 225, N-(3-(4,6-dimethylpyrimidin-5-yl)-4-(2-(pyrrolidin-1-yl)ethoxy)phenyl)-2-(5-methylthiazol-4-yl)acetamide], the Ki is reported as 712 nM. `Cc1ncoc1CC(=O)Nc1ccc(OCCN2CCCC2)c(-c2c(C)ncnc2C)c1` [Compound 226, N-(3-(4,6-dimethylpyrimidin-5-yl)-4-(2-(pyrrolidin-1-yl)ethoxy)phenyl)-2-(4-methyloxazol-5-yl)acetamide] gave a Ki of 714 nM. For `Cc1ncnc(C)c1-c1cc(NC(=O)Cc2ccnn2C)ccc1OCCN1CCCC1` [Compound 227, N-(3-(4,6-dimethylpyrimidin-5-yl)-4-(2-(pyrrolidin-1-yl)ethoxy)phenyl)-2-(1-methyl-1H-pyrazol-5-yl)acetamide], the Ki was 83.1 nM. Molecule `Cc1ncnc(C)c1-c1cc(NC(=O)CC2CCOC2)ccc1OCCN1CCCC1` (stereo not drawn) [Compound 228, N-(3-(4,6-dimethylpyrimidin-5-yl)-4-(2-(pyrrolidin-1-yl)ethoxy)phenyl)-2-(tetrahydrofuran-3-yl)acetamide] has a Ki of 13 nM. In the case of `Cc1ncnc(C)c1-c1cc(NC(=O)CC2CCCO2)ccc1OCCN1CCCC1` (stereo not drawn) [Compound 229, N-(3-(4,6-dimethylpyrimidin-5-yl)-4-(2-(pyrrolidin-1-yl)ethoxy)phenyl)-2-(tetrahydrofuran-2-yl)acetamide], the Ki is reported as 113 nM. With `Cc1ncnc(C)c1-c1cc(NC(=O)C2CCCO2)ccc1OCCN1CCCC1` (stereo not drawn) [Compound 230, N-(3-(4,6-dimethylpyrimidin-5-yl)-4-(2-(pyrrolidin-1-yl)ethoxy)phenyl)tetrahydrofuran-2-carboxamide] the Ki was 252 nM. `Cc1ncnc(C)c1-c1cc(NC(=O)C2CCOC2)ccc1OCCN1CCCC1` (stereo not drawn) [Compound 231, N-(3-(4,6-dimethylpyrimidin-5-yl)-4-(2-(pyrrolidin-1-yl)ethoxy)phenyl)tetrahydrofuran-3-carboxamide] gave a Ki of 45.7 nM. Molecule `CCOCC(=O)Nc1ccc(OCCN2CCCC2)c(-c2c(C)ncnc2C)c1` [Compound 234, N-(3-(4,6-dimethylpyrimidin-5-yl)-4-(2-(pyrrolidin-1-yl)ethoxy)phenyl)-2-ethoxyacetamide] has a Ki of 121 nM. Molecule `Cc1ncnc(C)c1-c1cc(NC(=O)Cn2cccn2)ccc1OCCN1CCCC1` [Compound 236, N-(3-(4,6-dimethylpyrimidin-5-yl)-4-(2-(pyrrolidin-1-yl)ethoxy)phenyl)-2-(1H-pyrazol-1-yl)acetamide] has a Ki of 21.4 nM. Molecule `Cc1ncnc(C)c1-c1cc(NC(=O)CN2CCn3cccc3C2)ccc1OCCN1CCCC1` [Compound 237, 2-(3,4-dihydro-1H-pyrrolo[1,2-a]pyrazin-2-yl)-N-[3-(4,6-dimethylpyrimidin-5-yl)-4-(2-pyrrolidin-1-ylethoxy)phenyl]acetamide] has a Ki of 12.7 nM. With `Cc1ncnc(C)c1-c1cc(NC(=O)CN2CCn3nccc3C2)ccc1OCCN1CCCC1` [Compound 239, 2-(6,7-dihydropyrazolo[1,5-a]pyrazin-5 (4H)-yl)-N-(3-(4,6-dimethylpyrimidin-5-yl)-4-(2-(pyrrolidin-1-yl)ethoxy)phenyl)acetamide] the Ki was 92.3 nM. Molecule `Cc1ncnc(C)c1-c1cc(NC(=O)CN2CCn3cnnc3C2)ccc1OCCN1CCCC1` [Compound 240, 2-(5,6-dihydro-[1,2,4]triazolo[4,3-a]pyrazin-7 (8H)-yl)-N-(3-(4,6-dimethylpyrimidin-5-yl)-4-(2-(pyrrolidin-1-yl)ethoxy)phenyl)acetamide] has a Ki of 60900 nM. `Cc1ncnc(C)c1-c1cc(NC(=O)COC2CC2)ccc1OCCN1CCCC1` [Compound 241, 2-(cyclopropoxy)-N-[3-(4,6-dimethylpyrimidin-5-yl)-4-(2-pyrrolidin-1-ylethoxy)phenyl]acetamide] showed a Ki of 27.8 nM. `Cc1ncnc(C)c1-c1cc(NC(=O)COC2CCC2)ccc1OCCN1CCCC1` [Compound 242, 2-cyclobutoxy-N-(3-(4,6-dimethylpyrimidin-5-yl)-4-(2-(pyrrolidin-1-yl)ethoxy)phenyl)acetamide] gave a Ki of 37.6 nM. For `Cc1ncnc(C)c1-c1cc(NC(=O)[C@@]23COC[C@@H]2C3)ccc1OCCN1CCCC1` [Compound 246, (1R,5R)—N-[3-(4,6-dimethylpyrimidin-5-yl)-4-(2-pyrrolidin-1-ylethoxy)phenyl]-3-oxabicyclo[3.1.0]hexane-1-carboxamide], the Ki was 16.3 nM. In the case of `Cc1ncnc(C)c1-c1cc(NC(=O)CCc2ccc(F)cc2)ccc1OCCN1CCCC1` [Compound 248, N-[3-(4,6-dimethylpyrimidin-5-yl)-4-(2-pyrrolidin-1-ylethoxy)phenyl]-3-(4-fluorophenyl)propanamide], the Ki is reported as 0.845 nM. Molecule `Cc1ncnc(C)c1-c1cc(NC(=O)Cc2cccn2C)ccc1OCCN1CCCC1` [Compound 249, N-(3-(4,6-dimethylpyrimidin-5-yl)-4-(2-(pyrrolidin-1-yl)ethoxy)phenyl)-2-(1-methyl-1H-pyrrol-2-yl)acetamide] has a Ki of 78.3 nM.

Same assay, conditions: read-out: 5-HT2A serotonin binding Ki value
For `Cc1nscc1C(=O)Nc1ccc(OCCN2CCCC2)c(-c2c(C)ncnc2C)c1` [Compound 223, N-(3-(4,6-dimethylpyrimidin-5-yl)-4-(2-(pyrrolidin-1-yl)ethoxy)phenyl)-3-methylisothiazole-4-carboxamide], the Ki was 10.5 nM.

From US20250270172A1, “Pyrimidine Derivatives As Modulators of the 5-HT2A Serotonin Receptor Useful For The Treatment of Disorders Related Thereto” (Arena Pharmaceuticals, Inc., priority 2020, published 2025)
